Peptide text beside a SMILES is read from it.

The target of assay [1] is T1, BK2 -receptor (Rattus norvegicus, UniProt P25023).
T1 construct: guinea-pig ileum (GPI), rat uterus (RU) and rabbit jugular vein (RJV); from tissue; host or cells: rat uterus
T1 sequence (P25023 1-396): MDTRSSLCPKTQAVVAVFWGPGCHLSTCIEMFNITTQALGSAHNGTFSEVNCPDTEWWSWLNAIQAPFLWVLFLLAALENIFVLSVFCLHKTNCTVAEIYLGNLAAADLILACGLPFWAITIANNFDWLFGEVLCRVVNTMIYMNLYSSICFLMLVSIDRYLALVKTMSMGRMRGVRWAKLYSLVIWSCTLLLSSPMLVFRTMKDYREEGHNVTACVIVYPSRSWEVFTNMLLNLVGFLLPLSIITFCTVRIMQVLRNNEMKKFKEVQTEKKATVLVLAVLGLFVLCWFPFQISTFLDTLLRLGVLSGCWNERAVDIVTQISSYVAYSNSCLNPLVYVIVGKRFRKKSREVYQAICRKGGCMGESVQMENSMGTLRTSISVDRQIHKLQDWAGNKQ
Put plainly: rat uterus (RU) in vitro, antagonism of BK. The settings on record: against BK.

Assay [2] concerns the target T2, BK2 receptor (Oryctolagus cuniculus, UniProt Q28642).
T2 construct: from tissue; host or cells: whole animal (rabbit, LPS-pretreated), blood pressure response
T2 sequence (Q28642 1-367): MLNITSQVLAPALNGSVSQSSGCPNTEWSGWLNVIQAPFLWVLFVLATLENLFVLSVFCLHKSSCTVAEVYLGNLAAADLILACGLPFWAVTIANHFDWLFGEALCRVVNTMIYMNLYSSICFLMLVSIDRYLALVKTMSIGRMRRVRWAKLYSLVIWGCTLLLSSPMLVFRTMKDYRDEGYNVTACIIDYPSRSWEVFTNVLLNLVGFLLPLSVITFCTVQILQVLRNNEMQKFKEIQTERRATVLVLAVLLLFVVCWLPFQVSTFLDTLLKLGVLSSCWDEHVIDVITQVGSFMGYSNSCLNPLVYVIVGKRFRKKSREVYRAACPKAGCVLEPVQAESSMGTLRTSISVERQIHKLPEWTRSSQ
Put plainly: blood pressure response to BK2 agonist in LPS-pretreated rabbits. In kind it is in vivo, rabbit. More on the design: key to observed antagonist activity BK2, 1 / observed antagonist activity BK2, 3 / observed antagonist activity BK2, 10: +: complete blockade of the blood pressure response to the appropriate agonist; ±: partial blockade; -: no observable effect at the dose indicated. As to conditions: rabbits given LPS (10 μg) 20 hours before; for observed antagonist activity BK2, 1: 1 μg kg^-1 min^-1; for observed antagonist activity BK2, 3: 3 μg kg^-1 min^-1. The text has this: (§1) That heterodimeric constructs block the activities attributable to two different receptor populations simultaneously when administered to an intact animal has been known using a standard assay of BK2 and BK1 receptor activity (see, deBlois, Bouthillier, and Marceau, Brit. J. Pharm., 103, 1057-1066, 1991). In normal rabbits, no changes in systemic arterial blood pressure can be detected in response to challenges with BK1 receptor agonists. There is, however, a predictable and reproducible response to BK2 agonists constituatively present. After stimulation with LPS BK1 receptor activity will develop over time such that profound responses to doses of BK1 agonists that were previously inconsequential in nature are observed after a 3-4 hour period. Responses to BK2 agonists are unchanged in these animals. At this point, one can test directly the ability to block both BK1 and BK2 mediated reductions in systemic blood pressure simultaneously with a heterodimeric antagonist.
(§2) FIGS. 8a, b and c comprise actual blood pressure traces from a series of experiments designed to illustrate the ability of a representative heterodimer (CP-0364) to block both BK1 - and BK2 - mediated hypotensive responses simultaneously.
(§3) The expected antagonist activity is based on the data summarized in Tables K and L. The in vivo experimental data reported are qualitative measurements of antagonist activity at three different doses (1, 3 and 10 μg kg^-1 min^-1) in rabbits given a sub-lethal dose of LPS (10 μg), 20 hours before initiation of the experiment.

Assay [3] has as its target T3, BK1 receptor (Oryctolagus cuniculus, UniProt P48748).
T3 sequence (P48748 1-352): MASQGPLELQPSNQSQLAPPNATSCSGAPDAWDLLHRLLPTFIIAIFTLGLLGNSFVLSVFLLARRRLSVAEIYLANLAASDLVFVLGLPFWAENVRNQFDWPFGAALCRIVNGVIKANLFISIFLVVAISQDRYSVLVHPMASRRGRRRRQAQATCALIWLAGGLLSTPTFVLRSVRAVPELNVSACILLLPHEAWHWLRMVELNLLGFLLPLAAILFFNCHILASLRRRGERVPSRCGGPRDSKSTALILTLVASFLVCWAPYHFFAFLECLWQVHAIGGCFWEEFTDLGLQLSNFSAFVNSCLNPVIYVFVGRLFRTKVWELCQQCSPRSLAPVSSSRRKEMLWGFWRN
Put plainly: rabbit aorta in vitro, reversal of des-Arg^9 -BK contraction. More on the design: on rabbit aorta (BK1 -receptor) in vitro; from tissue; host or cells: rabbit aorta. As to conditions: negative log of molar concentration causing 50% reversal of des-Arg^9 -BK (10^-7 M) contraction. The protocol: Each antagonist was then added, in a cumulative fashion, on top of the contraction and the negative log of the molar concentration of the antagonist causing a 50% reversal (IC50) of the […] measured.

Assay [4] deals with T3, BK1 receptor. As to the kind of experiment: blood pressure response to BK1 agonist in LPS-pretreated rabbits. It is filed as in vivo, rabbit. Also noted: from tissue; host or cells: whole animal (rabbit, LPS-pretreated), blood pressure response; key to observed antagonist activity BK1, 1 / observed antagonist activity BK1, 3 / observed antagonist activity BK1, 10: +: complete blockade of the blood pressure response to the appropriate agonist; ±: partial blockade; -: no observable effect at the dose indicated. The settings on record: rabbits given LPS (10 μg) 20 hours before; for observed antagonist activity BK1, 1: 1 μg kg^-1 min^-1; for observed antagonist activity BK1, 3: 3 μg kg^-1 min^-1; for observed antagonist activity BK1, 10: 10 μg kg^-1 min^-1.
Description: as §1, §2, §3

Consider `CC(C)C[C@H](NC(=O)[C@@H](Cc1ccccc1)NC(=O)[C@H](CO)NC(=O)[C@H](Cc1ccccc1)NC(=O)CNC(=O)[C@@H]1C[C@@H](O)CN1C(=O)[C@@H]1CCCN1C(=O)[C@H](CSC1CC(=O)N(CCCCCCN2C(=O)CC(SC[C@H](NC(=O)[C@H](Cc3ccccc3)NC(=O)CNC(=O)[C@@H]3C[C@@H](O)CN3C(=O)[C@@H]3CCCN3C(=O)[C@H](CCCNC(=N)N)NC(=O)[C@H](N)CCCNC(=N)N)C(=O)N[C@H](Cc3ccccc3)C(=O)N[C@@H](CC(C)C)C(=O)N[C@@H](CCCNC(=N)N)C(=O)O)C2=O)C1=O)NC(=O)[C@H](N)CCCNC(=N)N)C(=O)O` (stereo partly drawn) [CP-0386] (HELM PEPTIDE1{[dR].R.P.[Hyp].G.F.C.[dF].L.R}|PEPTIDE2{[dR].C.P.[Hyp].G.F.S.[dF].L}|CHEM1{[O=C1CC([*:1])C(=O)N1CCCCCCN1C(=O)CC([*:2])C1=O]}$PEPTIDE1,CHEM1,7:R3-1:R1|PEPTIDE2,CHEM1,2:R3-1:R2$$$V2.0; N-terminus and C-terminus assumed), for which the “pA2 rat uterus (BK2)” value in assay [1] is recorded as 7.6 ± 0.1. For the same compound, in assay [2], the “observed antagonist activity BK2, 1” value is “+” and the “observed antagonist activity BK2, 3” value is reported as “+”. In assay [2] (10 μg kg^-1 min^-1), the “observed antagonist activity BK2, 10” value is listed as “+”. In assay [3], the “BK1 rabbit aorta IC50” value is given as 7.1 ± 0.2. In assay [4], the “observed antagonist activity BK1, 1” value is “+”; the “observed antagonist activity BK1, 3” value is reported as “+”; the “observed antagonist activity BK1, 10” value was “+”.

On to `N=C(N)NCCC[C@@H](N)C(=O)N[C@@H](CCCNC(=N)N)C(=O)N1CCC[C@H]1C(=O)N1C[C@H](O)C[C@H]1C(=O)NCC(=O)N[C@@H](Cc1ccccc1)C(=O)N[C@@H](CO)C(=O)N1Cc2ccccc2C[C@@H]1C(=O)N1[C@H](C(=O)O)C[C@@H]2CCCC[C@@H]21` [CP-0267, D R--R--P--J--G--F--S--D Tic--Oic] (HELM PEPTIDE1{[dR].R.P.[Hyp].G.F.S.[O=C([C@H]1Cc2ccccc2CN1[*:1])[*:2]].[O=C(O)[C@@H]1C[C@@H]2CCCC[C@@H]2N1[*:1]]}$$$$V2.0; N-terminus and C-terminus assumed), for which, in assay [1], the “pA2 rat uterus (BK2)” value is reported as 5.7 ± 0.1. In assay [2], the “observed antagonist activity BK2, 1” value was “-” and the “observed antagonist activity BK2, 3” value is recorded as “-”. In addition, the “BK1 rabbit aorta IC50” value in assay [3] is on record as 7.5 ± 0.2. In assay [4], the “observed antagonist activity BK1, 1” value is “-”; the “observed antagonist activity BK1, 3” value is “-”; the “observed antagonist activity BK1, 10” value is given as “+”.

The record behind these values is patent US5635593A (priority 1995, dated 1997).
